Measurements taken from patent US20200009110A1, “METHOD FOR TREATING AN ALLERGIC DISEASE” (Arjil Biotech Holding Company Limited, priority 2018, published 2020).
“Also recorded” adds a separate entry of the source.

Experiments:
[1] = system: IL-1β expression in PMA-activated THP-1 cells; assay: PMA-induced IL-1β expression in THP-1 cells (Q-PCR, immunoblotting); assay type: cell-based; settings: for IL-1β mRNA expression, treatment after activation: PMA for 24 h, followed by treatment for another 24 h; for IL-1β mRNA and protein expression, pretreatment: pretreated 0.5 h, followed by PMA induction for 48 h
Description: Q-PCR analysis (left) and immunoblotting (right) for IL-1β mRNA and protein expression in THP-1 cells pretreated with AR001DS1 or AR001DS2 for 0.5 h, followed by PMA induction for 48 h.
Q-PCR analysis for IL-1β mRNA expression in THP-1 cells stimulated with PMA for 24 h, followed by treatment with or without AR001DS1 or AR001DS2 for another 24 h.
Because AR100 was composed of AR001DS1 and AR001DS2, THP-1 cells were independently pre-treated with the two components, followed by PMA activation.

[2] = system: BALB/c mice with Con A-induced hepatitis; assay: Con A-induced acute (autoimmune) hepatitis animal experiment; assay type: in vivo
Description: Concanavalin A (Con A) and dexamethasone (Dex) were purchased from Sigma-Aldrich (USA). ProcartaPlex™ Immunoassays kit was purchased from Corning Inc. (USA). GOP and GPT Fuji Dri-Chem slides were purchased from Winning Medical Inc. (Taiwan).
Male BALB/c mice (7-9 weeks old) were purchased from BioLASCO Taiwan Co., Ltd or National Laboratory Animal Center (NLAC, Taiwan). Animals were housed five per cage with food and water provided ad libitum throughout the experiments. Room temperature was maintained at 23±2° C. with an alternating 12 h light-dark cycle. Animals were acclimatized for one week to minimize the effect of stress before the experiments. All experimental protocols involving animals and their care were approved by the Institutional Animal Care and Use Committee (IACUC) in ITRI (ITRI-IACUC-2018-041 and ITRI-IACUC-2018-050; accredited by AAALAC) and were carried out according to the regulations of the Council of Agriculture, Taiwan.
Con A was dissolved in pyrogen-free saline at a concentration of 3 mg/ml and intravenously injected at a dose of 15 mg/kg or 20 mg/kg of body weight to induce hepatitis. AR100DS1 and Dex were orally administered 30 min before and then 4 h and 8 h after Con A treatment. Blood and liver tissues were collected 24 h after Con A treatment. Serum were stored at −80° C. until analysis.
To assess the level of hepatocellular injury after Con A treatment, serum GPT and GOT levels were measured by Fuji Dri-Chem slides (Fuji, Japan).
The serum of the same group were pooled for cytokine assay. Cytokine levels were measured by ProcartaPlex™ Immunoassays kit according to manufacturer's instructions.
Liver tissues were fixed in 10% phosphate-buffered formaldehyde, embedded in paraffin, and stained with hematoxylin and eosin (H&E) in order to confirm tissue lesions. Tissue lesions were examined microscopically by a veterinary pathologist at BioLASCO Taiwan Co., Ltd. The criteria of severity grading system for all microscopic lesions were graded from 0 to 4 as follows: 0=none; 1=individual cell necrosis; 2=≤30% lobular necrosis; 3=≤60% lobular necrosis; 4=22 60% lobular necrosis.
Data are presented as mean±SEM. In this study, Student's t-test was used to analyze the differences between drug-and vehicle-treated groups. The difference is regarded statistically significant when p value is less than 0.05.
Autoimmune hepatitis (AIH) is a complex disease which is characterized by hepatocellular inflammation, necrosis, and a tendency to cirrhosis. The plant lectin concanavalin A (Con A)-induced acute hepatitis in BALB/c mice is a common animal model for AIH and we performed this model to evaluate the anti-hepatitis effects of AR001DS1. Dexamethasone (Dex), one of the steroids-based standard treatments of AIH, was used as a positive control.

[3] = system: TNF-α secretion in DCs from C57BL/6 mice; assay: ELISA assay for TNF-α secretion by LPS-stimulated dendritic cells; assay type: cell-based; settings: AR001DS1 12.5, 25, 50 and 100 μg/ml
Description: DCs were isolated from C57BL/6 mice and incubated at 37° C. for 7 days. Then DCs were plated in a 24-well plate and cultured at 37° C. overnight in a 5% CO2 atmosphere. DCs were treated with AR001DS1 (12.5, 25, 50 and 100 μg/ml) for 1 h, and then stimulated with lipopolysaccharide (LPS) for 4 h. The supernatants were collected and TNF-α secretion in culture supernatants was quantitated using an ELISA assay.

RBL-2H3 cells = assay: β-Hexosaminidase secretion assay (mast cell degranulation); assay type: cell-based; settings: 12.5, 25, 50 and 100 μg/ml, anti-DNP IgE-sensitized, DNP-BSA stimulated
Description: RBL-2H3 cells were plated in a 24-well plate and then sensitized with anti-dinitrophenyl (DNP)-IgE overnight at 37° C. in a 5% CO2 atmosphere. After washing, the cells were treated with AR001DS1 (12.5, 25, 50 and 100 μg/ml) at 37° C. for 30 min, and then stimulated with DNP-bovine serum albumin (BSA) at 37° C. for 30 min to induce degranulation. The supernatant was transferred to a 96-well microplate and incubated for 2 h with equal volume of 5 mM 4-nitrophenyl N-acetyl-b-glucosaminide in 0.1M citrate buffer (pH 4.5). The reaction was terminated by adding […] of stop buffer (0.05 M sodium carbonate, pH 10), and OD at 405 nm was determined using an ELISA plate reader.

[4] = system: animal model of gout arthritis; assay: Animal model of gout arthritis; settings: in vivo
[5] = system: PMA-induced cytokines in THP-1 cells; assay: Bio-plex human 27-plex cytokine assay in PMA treated THP-1 cells; assay type: cell-based; settings: 10 μg/ml for 0.5 hr, then PMA 10 ng/ml for 24 hr
Description: In addition to IL-1β, several cytokines participated in inflammatory responses. To identify cytokine networks affected by AR001DS1, we performed Bio-plex analysis to monitor the effect of AR001DS1 treatment on the expression of human 27 cytokines in PMA treated THP-1 cells.

Question: Which results are given for `C=CC(OC(C)=O)c1ccc(OC(C)=O)cc1` (stereo not drawn) [AR001DS2, 1′-acetoxychavicol acetate]?
Answer: IL-1β mRNA expression, treatment after activation [1]: did not suppressed; IL-1β mRNA and protein expression, pretreatment [1]: blocked the expression of IL-1β; also recorded: inhibits PMA-induced IL-1β expression

Question: `C[C@@H]1C[C@H]2[C@@H]3CCC4=CC(=O)C=C[C@]4(C)[C@@]3(F)[C@@H](O)C[C@]2(C)[C@@]1(O)C(=O)CO` [Dex, dexamethasone] was tested. Which “serum GPT” value ([2]; 15 mg/kg Con A, oral, Con A alone 1437±398) did it give?
Answer: 898±515 U/L

Question: And the “serum GOT” value ([2]; 15 mg/kg Con A, oral, Con A alone 1450±433)?
Answer: 809±339 U/L

Question: What about the “liver necrosis histopathological score (0-4)” value ([2]; 15 mg/kg Con A, Con A alone 2.2±0.2) of the same compound?
Answer: 1.6±0.6

Question: What about the “liver necrosis histopathological score (0-4)” value ([2]; 20 mg/kg Con A) of the same compound?
Answer: 2.6±0.2

Question: What about the “serum GPT” value ([2]; 20 mg/kg Con A, oral) of the same compound?
Answer: 1940±403 U/L

Question: What about the “serum GOT” value ([2]; 20 mg/kg Con A, oral, Con A alone 2249±549) of the same compound?
Answer: 1261±282 U/L

Question: Which “secretion of TNF-α” value [3] does the source give for `O=c1c(O)c(-c2ccc(O)c(O)c2)oc2cc(O)cc(O)c12` [quercetin, reference compound] here?
Answer: effectively reduced the secretion of TNF-α

Question: With `C=C1C(=O)OC2/C=C(\C)CC3C=C(CC/C=C(\C)CCC12)C(=O)O3` (stereo not drawn) [AR001DS1, ovatodiolide] as the compound, how does the “secretion of β-hexosaminidase (degranulation)” value (RBL-2H3 cells) read?
Answer: significantly inhibited; also recorded: suppress mast cell degranulation in a dose-dependent manner

Question: What about the “liver necrosis histopathological score (0-4)” value ([2]; 50 mg/kg oral, 15 mg/kg Con A, vehicle 1.4±0.2) of the same compound?
Answer: 0.2±0.2

Question: What about the “serum GPT” value ([2]; 50 mg/kg oral, 15 mg/kg Con A, vehicle 368±107, p<0.05) of the same compound?
Answer: 109±25 U/L

Question: What about the “serum GOT” value ([2]; 50 mg/kg oral, 15 mg/kg Con A, vehicle 410±56) of the same compound?
Answer: 261±45 U/L

Question: And the “IL-1β mRNA expression, treatment after activation” value [1]?
Answer: inhibits PMA-induced IL-1β expression

Question: What about the “IL-1β mRNA expression, treatment after activation” value ([1]; listed as AR100DS1) of the same compound?
Answer: attenuated the expression of IL-1β

Question: What about the “IL-1β mRNA and protein expression, pretreatment” value [1] of the same compound?
Answer: blocked the expression of IL-1β; also recorded: inhibits PMA-induced IL-1β expression

Question: And the “secretion of TNF-α” value [3]?
Answer: better inhibitory effect on the secretion of TNF-α in LPS-stimulated DCs than quercetin; also recorded: suppress TNF-α secretion by dendritic cells (DCs) in a dose-dependent manner

Question: What about the “effect on gout arthritis” value [4] of the same compound?
Answer: therapeutic effects

Question: And the “IL-1β expression (Bio-plex)” value [5]?
Answer: attenuated its expression

Question: And the “MIP-α and -β expression (Bio-plex)” value [5]?
Answer: blocked their expressions

Question: And the “induction of IL-8, TNF-α and RANTES (Bio-plex)” value [5]?
Answer: inhibited
